What was measured:
Cobra tomatoes = assay: Trial 1: LCO dose and delivery medium on greenhouse tomato (Cobra); type: in vivo; settings: for more flowers than other treatments and control: 50 ng LCO
Protocol: Cobra (a hybrid cultivar) was used to examine optimum application dose between 10 and 100 ng/plant at one or two applications and the LCO delivery medium. The levels chosen were the extremes of beneficial doses determined previously in tomato field trials. The delivery media tested were LCO in water, Apex and centrifuged Apex. The first application of LCO was made 10 days after transplanting. When applied a second time it was 2 weeks after the first application. The following parameters were tested: leaf number, plant height, number of cluster, number of flower, number of fruit. Observations were made continuously for approximately a two-month period, at one-week intervals until plant growth was limited by pot bound roots. The cobra seedlings were transplanted 32 days after seeding, the first application was 10 days thereafter, the second application was 14 days after the first application. The fruits were harvested 6 weeks after the second application.

Arabidopsis thaliana = assay: Experiments 3 and 4: effect of LCO on flowering in Arabidopsis thaliana; type: in vivo; settings: vs surfactant treated plants
Protocol: Two experiments were performed to investigate effect of LCO on plant's flowering using experimental model plant Arabidopsis thaliana. Plants were treated with various a range of LCO concentrations. […] The LCO treated plants reached over 80% of plants with open flowers 4 days earlier than control, surfactant treated plants. LCO induced faster and more uniform flowering.

Marigolds = assay: Experiment 12: LCO application on marigolds; type: in vivo, Marigold; settings: best treatments
Protocol: Marigolds were planted in 32-cell flat and LCO was applied foliarly to plants 4 weeks after sowing (4 flats/treatment, 1 ml/plant applied containing various levels of LCO). Data collection started from the first flower appearing.

grain corn (cv. DK376) = assay: Experiment 9: effect of LCO on grain corn yield; type: in vivo
Description: Fertilizer (36-12-18) was applied to the corn field at a rate of 500 kg/ha before seeding. A machine planter was employed to plant the grain (cv. DK376, HU2650, Fludioxnil coated). To protect corn ears from bird damage, grain corn ears in the middle two rows were covered with plastic nets after silking. LCO was applied to corn plants at a rate of 200 L/ha for the first application 40 days after planting and at 400 L/ha for the second application 58 days after planting. The two protected middle rows of plants were harvested by a combine 152 days after planting. […] The total grain yield increased for all but the 10^−8M double application.

soybean (cv. Nortman) = assay: Experiment 18: LCO foliar application on legume (soybean); type: in vivo
Protocol: A short heat-unit variety of soybean (cv. Nortman, HU 2425) was planted at density of plants on the field of approx. 300 plants per plot (500,000 plants/ha). The soybean plants were first treated with LCO at their blooming stage 24 days after planting. The treatment amounts of LCO (detailed above) were diluted with distilled water to give a 2-litre solution sprayed over 4 plots of the treatment. The second application was sprayed at the podding stage 49 days after planting. As before, the LCO was diluted with distilled water to 2-litre solution per 4 plots of the treatment. The plants receiving a single application were sprayed with LCO for the first time, whereas the plants receiving a double application were sprayed for the second time. A CO2 pressure sprayer was employed for this trial. The amount of fluid dispensed by the sprayer was controlled by the nozzle size. It was calibrated with water prior to spraying with LCO. Biomass was examined 58 days after planting by digging out by hand 5 plants per plot. The final yield was obtained by harvesting by combine the intact area (2-meter long to the end) 101 days after planting. The data were analyzed with the SAS program.

## Lipo-chitooligosaccharides [LCO]
Cobra tomatoes; 10 ng, Dec. 30
  Number of Flowers/Plant: 1.2
Cobra tomatoes; 10 ng, Jan. 07
  Number of Flowers/Plant: 2.4
  Number of Fruit/Plant: 0.3
Cobra tomatoes; 10 ng, Jan. 15
  Number of Flowers/Plant: 4.4
  Number of Fruit/Plant: 1.8
Cobra tomatoes; 10 ng, Jan. 22
  Number of Flowers/Plant: 5.6
  Number of Fruit/Plant: 2.1
Cobra tomatoes; 10 ng, Jan. 31
  Number of Flowers/Plant: 8.1
  Number of Fruit/Plant: 2.5
Cobra tomatoes; 10 ng, Mean of bases
  Fruit Weight: 87.09 Gram/Plant
Cobra tomatoes; 10 ng, base Bacterial Camer
  Fruit Weight: 97.97 Gram/Plant
Cobra tomatoes; 10 ng, base Bacterial Supernatent
  Fruit Weight: 67.2 Gram/Plant
Cobra tomatoes; 10 ng, base Water
  Fruit Weight: 96.11 Gram/Plant
Cobra tomatoes; 50 ng LCO treatment
  early yield (fruit weight) vs untreated control: statistically significant effect
Cobra tomatoes; January 15
  more flowers than other treatments and control: 21%
Cobra tomatoes; January 22
  more flowers than other treatments and control: 14%
Cobra tomatoes; 50 ng, Dec. 30
  Number of Flowers/Plant: 0.97
Cobra tomatoes; 50 ng, Jan. 07
  Number of Flowers/Plant: 2.5
  Number of Fruit/Plant: 0.33
Cobra tomatoes; 50 ng, Jan. 15
  Number of Flowers/Plant: 5.2
  Number of Fruit/Plant: 2.2
Cobra tomatoes; 50 ng, Jan. 22
  Number of Flowers/Plant: 6.7
  Number of Fruit/Plant: 2.5
Cobra tomatoes; 50 ng, Jan. 31
  Number of Flowers/Plant: 8.7
  Number of Fruit/Plant: 2.9
Cobra tomatoes; 50 ng, Mean of bases
  Fruit Weight: 104.26 Gram/Plant
Cobra tomatoes; 50 ng, base Bacterial Camer
  Fruit Weight: 103.32 Gram/Plant
Cobra tomatoes; 50 ng, base Bacterial Supernatent
  Fruit Weight: 100.48 Gram/Plant
Cobra tomatoes; 50 ng, base Water
  Fruit Weight: 108.99 Gram/Plant
Cobra tomatoes; 100 ng, Dec. 30
  Number of Flowers/Plant: 0.9
Cobra tomatoes; 100 ng, Jan. 07
  Number of Flowers/Plant: 2.2
  Number of Fruit/Plant: 0.37
Cobra tomatoes; 100 ng, Jan. 15
  Number of Flowers/Plant: 4.4
  Number of Fruit/Plant: 1.7
Cobra tomatoes; 100 ng, Jan. 22
  Number of Flowers/Plant: 6.2
  Number of Fruit/Plant: 2.1
Cobra tomatoes; 100 ng, Jan. 31
  Number of Flowers/Plant: 8.7
  Number of Fruit/Plant: 2.6
Cobra tomatoes; 100 ng, Mean of bases
  Fruit Weight: 87.99 Gram/Plant
Cobra tomatoes; 100 ng, base Bacterial Camer
  Fruit Weight: 66.26 Gram/Plant
Cobra tomatoes; 100 ng, base Bacterial Supernatent
  Fruit Weight: 109.13 Gram/Plant
Cobra tomatoes; 100 ng, base Water
  Fruit Weight: 88.57 Gram/Plant
Cobra tomatoes; Trial 1, FIG. 5, Table 3
  advance of flowering over control: 4 to 5 days
Cobra tomatoes; Trial 1, second graph
  advance in early fruiting over control: 8 to 9 days
Cobra tomatoes; three to four weeks after application
  optimal application (early fruit set): approximately 50 ng per plant
Arabidopsis thaliana
  reached over 80% of plants with open flowers earlier than control: 4 days
Marigolds
  advanced flowering: 2 days
  increase in number of flowers at 25 days: 8%
Grain corn (cv. DK376); 10^−7M once
  Dry Yield (kg/2 rows): 3.44 kg/2 rows
  Dry yield (kg/ha): 5730.6 kg/ha
  Ears/2 rows: 37.25ab
  Fresh Yield (kg/2 rows): 4.40 kg/2 rows
  Fresh Yield (kg/ha): 7333.3 kg/ha
Grain corn (cv. DK376); 10^−7M twice
  Dry Yield (kg/2 rows): 3.96 kg/2 rows
  Dry yield (kg/ha): 6606.5 kg/ha
  Ears/2 rows: 40.00a
  Fresh Yield (kg/2 rows): 5.03 kg/2 rows
  Fresh Yield (kg/ha): 8383.3 kg/ha
Grain corn (cv. DK376); 10^−8M once
  Dry Yield (kg/2 rows): 3.62 kg/2 rows
  Dry yield (kg/ha): 6040.4 kg/ha
  Ears/2 rows: 37.00ab
  Fresh Yield (kg/2 rows): 4.57 kg/2 rows
  Fresh Yield (kg/ha): 7616.7 kg/ha
Grain corn (cv. DK376); 10^−8M twice
  Dry Yield (kg/2 rows): 3.23 kg/2 rows
  Dry yield (kg/ha): 5387.1 kg/ha
  Ears/2 rows: 32.25bc
  Fresh Yield (kg/2 rows): 4.12 kg/2 rows
  Fresh Yield (kg/ha): 6866.7 kg/ha
Grain corn (cv. DK376); 10^−9M once
  Dry Yield (kg/2 rows): 3.77 kg/2 rows
  Dry yield (kg/ha): 6275.6 kg/ha
  Ears/2 rows: 39.00ab
  Fresh Yield (kg/2 rows): 4.75 kg/2 rows
  Fresh Yield (kg/ha): 7916.7 kg/ha
Grain corn (cv. DK376); 10^−9M twice
  Dry Yield (kg/2 rows): 3.57 kg/2 rows
  Dry yield (kg/ha): 5953.5 kg/ha
  Ears/2 rows: 37.25ab
  Fresh Yield (kg/2 rows): 4.55 kg/2 rows
  Fresh Yield (kg/ha): 7583.3 kg/ha
Grain corn (cv. DK376); all treatments except the 10^−8M double application
  Ear number over untreated control: significantly increased
Soybean (cv. Nortman); LCO 1 ng, applied once
  Biomass (g/5-plant): 49.46 AB g/5-plant
  Yield (kg/ha): 2563.96 AB kg/ha
Soybean (cv. Nortman); LCO 1 ng, applied twice
  Biomass (g/5-plant): 55.10 AB g/5-plant
  Yield (kg/ha): 2673.54 AB kg/ha
Soybean (cv. Nortman); LCO 10 ng, applied once
  Biomass (g/5-plant): 46.28 AB g/5-plant
  Yield (kg/ha): 2515.33 B kg/ha
Soybean (cv. Nortman); LCO 10 ng, applied twice
  Biomass (g/5-plant): 60.11 A g/5-plant
  Yield (kg/ha): 2385.75 B kg/ha
Soybean (cv. Nortman); LCO 100 ng, applied once
  Biomass (g/5-plant): 46.87 AB g/5-plant
  Yield (kg/ha): 2635.00 AB kg/ha
Soybean (cv. Nortman); LCO 100 ng, applied twice
  Biomass (g/5-plant): 55.09 AB g/5-plant
  Yield (kg/ha): 2974.17 A kg/ha
Soybean (cv. Nortman); LCO 1000 ng, applied once
  Biomass (g/5-plant): 47.99 AB g/5-plant
  Yield (kg/ha): 2452.71 B kg/ha
Soybean (cv. Nortman); LCO 1000 ng, applied twice
  Biomass (g/5-plant): 47.81 AB g/5-plant
  Yield (kg/ha): 2620.42 AB kg/ha

Reference: patent US20130244879A1, “USE OF LIPO-CHITOOLIGOSACCHARIDES TO INITIATE EARLY FLOWERING AND FRUIT DEVELOPMENT IN PLANTS AND RELATED METHODS AND COMPOSITIONS” (NOVOZYMES BIOLOGICALS HOLDING A/S, priority 2003, published 2013)
